Measurements from US20250381121A1, “COMPOSITION FOR PERSONAL CARE PRODUCTS” (VAGINAL BIOME SCIENCE, INC., priority 2024, published 2025).
Where two headings read alike, the source gives them in different places.

Assays:
[1] = system: herpes simplex virus (HSV-2); details: cited from earlier work
[2] = system: Lactobacillus crispatus; assay: Growth of Lactobacillus crispatus with UV-irradiated acemannan over 24 hours; format: cell-based
Description: Growth media contained Dextrose-Free Sharpe (MRS) broth and Lactobacilli MRS Agar or an equivalent. Extract of irradiated aloe vera was further added to the MRS broth at 0.1 and 0.3% (w/v). A predetermined number of bacteria was added to each of the prepared medium and cultured at 37° C. under a suitable condition for the organism to be tested (anaerobic conditions for L. crispatus and L. gasseri). A small portion of the culture was removed at 2, 4, 6, 8, 12, 14, 16, 18, and 24 hours of culture. At each time point, collected samples containing the growing organisms are plated to quantify the live cell number.
The cell growth of Lactobacillus crispatus and Lactobacillus gasseri was determined by serial dilutions and plating to determine the bacterial counts at designated time points during the 24-h study period. Plates were cultured at 37° C. under a suitable condition for the organism to be tested (anaerobic conditions for L. crispatus and L. gasseri). Bacterial colonies were quantified at 0 and 16 hours after incubation.
The experiments were carried out using the method described above for EXAMPLE 4. Lactobacillus crispatus was cultured in the presence of varying concentrations (0.1%, 0.2%, 0.3%, 0.5%) of UV-irradiated acemannan or a negative control over a 24-hour period. Bacterial growth was quantified at 10 time points (0-24 hours) using log-scaled CFU/mL equivalents.

Molecule: CCCCCCCCCCCC(=O)OCC(O)CO (stereo not drawn) [glycerol monolaurate (GML), glycerol monolaurate]
- susceptibility to herpes simplex virus (HSV-2) ([1]; 5% as a colloidal suspension in phosphate buffered saline, single exposure): markedly increased
- susceptibility to herpes simplex virus (HSV-2) ([1]; 5% formulated in K-Y Warming Jelly, single exposure): markedly increased

Molecule: CC(O)CO (stereo not drawn) [propylene glycol]
- susceptibility to herpes simplex virus (HSV-2) ([1]; in vivo): markedly increased

Molecule: polyethylene glycol [polyethylene glycol (PEG-8)]
- susceptibility to herpes simplex virus (HSV-2) ([1]; in vivo): markedly increased

Molecule: acemannan
- enhancement of L. crispatus growth compared with negative control ([2]; 0.3% acemannan, at 10 hours (p<0.05)): significant enhancement of growth
- stimulation of L. crispatus growth over negative control ([2]; 0.5% acemannan, significant at 6, 8, 10 and 18 hours (p<0.05)): most robust and consistent stimulation
